Laboratory results published in patent US10357507B2, “Use of ginsenoside M1 for inhibiting renal fibrosis” (priority 2014, dated 2019).

Tests used:
Format in all cases: in vivo, C57BL/6 mice
UUO kidney = experiment: Renal histopathology evaluation by H&E staining in UUO model; details: 30 mg/kg daily i.p.
Protocol: (§1) Male 8-week-old C57BL/6 mice were purchased form National Laboratory Animal Breeding and Research Center (Taipei, Taiwan) and maintained at the animal center of the National Defense Medical Center (Taipei, Taiwan). All animal experiments were performed with the approval of the Institutional Animal Care and Use Committee of The National Defense Medical Center, Taiwan, and were consistent with the National Institutes of Health Guide for the Care and Use of Laboratory Animals.
(§2) Mice were first anesthetized with sodium pentobarbital (50 mg/kg, i.p.). After a left flank incision was taken, the left ureter was exposed, ligated with 6-0 silk sutures at two points, and cut between the two ligatures. Lastly, the peritoneal membrane and skin were sutured. Sham surgery was performed as control by following all steps of UUO-procedure except ligation and cut of ureter. (Xiao et al. Adenosine A2A receptor: a target for regulating renal interstitial fibrosis in obstructive nephropathy, PLoS One. 2013 Apr. 9; 8 (4):e60173).
Briefly, all mice received preoperative analgesia (subcutaneous injection of […] buprenorphin (Temgesic, Shering-Plough)) and the right ureter was subsequently ligated with 6.0 silk through a small abdominal incision under 2.0% isoflurane-induced anesthesia. The abdomen was closed in two layers and mice were allowed to recover from surgery for 12 hours at 28° C. in a ventilated stove. Mice were sacrificed 7 or 14 days after surgery (Pulskens, et al. Nlrp3 prevents early renal interstitial edema and vascular permeability in unilateral ureteral obstruction, PLoS One. 2014 Jan. 15; 9 (1):e85775).
Ginsenoside M1, 20-O-β-D-glucopyranosyl-20(S)-protopanaxadiol (named LCHK168 below), was prepared by methods known in the art, such as those described in Taiwan Patent Application No. 094116005 (I280982) and U.S. Pat. No. 7,932,057. LCHK168 was dissolved in 3% cremophore (Sigma-Aldrich). Starting from one day before UUO operation, mice were given a daily dose of LCHK168 (30 mg/kg) by intraperitoneal injection till sacrifice.
Paraffin-embedded kidney tissues were sectioned and stained with Masson's trichrome and hematoxylin and eosin (H&E) using standard protocols. For histopathology, the tissues were fixed in 10% buffered formalin and embedded in paraffin, and then sections (3 μm) were prepared and stained with hematoxylin and eosin (H&E).
Sections all are examed after mounting. The methods of semi-quantitative analysis are according to the degree of inflammation and fibrosis on renal tubulointerstitial whereas and randomly selected 20 fields randomly for scoring. […]

[1] = tested on: apoptotic cells in UUO renal interstitial area; experiment: TUNEL staining of renal section for apoptotic cells in UUO model; details: UUO mice; 30 mg/kg daily i.p.
Protocol: as §1, §2
(§3) Briefly, all mice received preoperative analgesia (subcutaneous injection of […] buprenorphin (Temgesic, Shering-Plough)) and the right ureter was subsequently ligated with 6.0 silk through a small abdominal incision under 2.0% isoflurane-induced anesthesia. […]

[2] = tested on: proliferating cell nuclear antigen (PCNA); experiment: Immunohistochemical staining of renal section for PCNA in UUO model; details: UUO mice; 30 mg/kg daily i.p.
Protocol: as §1, §2, §3

[3] = tested on: fibrosis tissue in the UUO interstitial area; experiment: Masson's trichrome staining of renal section in UUO model; details: UUO mice; 30 mg/kg daily i.p.
Protocol: as §1, §2, §3

α-SMA = experiment: Immunohistochemical staining of renal section for α-SMA in UUO model; details: UUO mice; 30 mg/kg daily i.p.
Protocol: as §1, §2, §3

collagen III = experiment: Immunohistochemical staining of renal section for collagen III in UUO model; details: UUO mice; 30 mg/kg daily i.p.
Protocol: as §1, §2, §3

collagen IV = experiment: Immunohistochemical staining of renal section for collagen IV in UUO model; details: UUO mice; 30 mg/kg daily i.p.
Protocol: as §1, §2, §3

NF-κB = experiment: Immunohistochemical staining of renal section for NF-κB in UUO model; details: UUO mice; 30 mg/kg daily i.p.
Protocol: as §1, §2, §3

[4] = tested on: F4/80+ monocytes/macrophages; experiment: Immunohistochemical staining of renal section for F4/80 (macrophage infiltration) in UUO model; details: UUO mice; 30 mg/kg daily i.p.
Protocol: as §1, §2, §3

CD3+ T cells = experiment: Immunohistochemical staining of renal section for CD3+ (T cell infiltration) in UUO model; details: UUO mice; 30 mg/kg daily i.p.
Protocol: as §1, §2, §3

MCP-1 = experiment: ELISA of MCP-1 in pelvis urine in UUO model
Protocol: as §1
as §2, with “(4):e60173). […]” for “(4):e60173).”
(§4) Urine samples are collected from calyx and pelvis by 29G insulin syringe. […] MCP-1, TNF-α, and IL-1β are then detected by ELISA following instruction manual (eBioscience and R&D). […]

TNF-α = experiment: ELISA of TNF-α in pelvis urine in UUO model
Protocol: as §1
as §2, with “(4):e60173). […]” for “(4):e60173).”
as §4

IL-1β = experiment: ELISA of IL-1β in pelvis urine in UUO model
Protocol: as §1
as §2, with “(4):e60173). […]” for “(4):e60173).”
as §4

splenocytes = experiment: B cells and T cells activation in splenocytes by flow cytometry in UUO model; details: within three groups (sham, disease control, LCHK168)
Protocol: as §1, §2, §3

bone marrow cells = experiment: Stem cells and hematopoietic stem cell activation in bone marrow cells by flow cytometry in UUO model; details: within three groups (sham, disease control, LCHK168)
Protocol: as §1, §2, §3

[5] = 7 days of UUO, vs disease control mice
[6] = day 7, compare to normal control group

SMILES: CC(C)=CCC[C@](C)(O[C@@H]1O[C@H](CO)[C@@H](O)[C@H](O)[C@H]1O)[C@H]1CC[C@]2(C)[C@@H]1[C@H](O)C[C@@H]1[C@@]3(C)CC[C@H](O)C(C)(C)[C@@H]3CC[C@]12C [LCHK168, 20-O-β-D-glucopyranosyl-20(S)-protopanaxadiol]
- mononuclear leukocyte infiltration in the interstitial area (H&E) (UUO kidney; [5]): inhibited
- tubular dilation in the interstitial area (H&E) (UUO kidney; [5]): inhibited
- fibrosis (H&E) (UUO kidney; 14 days of UUO): significantly inhibited
- tubular atrophy (H&E) (UUO kidney; 14 days of UUO): significantly inhibited
- apoptotic cells (TUNNEL staining) in UUO renal interstitial area [1]: decrease
- PCNA expression in renal section [2]: decrease
- fibrosis tissue in the UUO interstitial area (Masson's trichrom staining) [3]: decreased
- α-SMA expression in UUO interstitial area (α-SMA): decreased
- collagen III expression in UUO interstitial area (collagen III): decreased
- collagen IV expression in UUO interstitial area (collagen IV): decreased
- NF-κB expression in renal section (NF-κB): inhibited
- expression of F4/80 (macrophage) in renal section [4]: decreased
- expression of CD3+ (T cells) in renal section (CD3+ T cells): decreased
- MCP-1 in renal pelvis urine (MCP-1; [6]): higher
- MCP-1 in renal pelvis urine (MCP-1; day 14, compare to UUO group): significant decreased
- TNF-α in renal pelvis urine (TNF-α; [6]): higher
- TNF-α in renal pelvis urine (TNF-α; day 14, compare to UUO group): significant decreased
- IL-1β in renal pelvis urine (IL-1β; [6]): higher
- IL-1β in renal pelvis urine (IL-1β; day 14, compare to UUO group): significant decreased
- percentage of CD3+CD69+ cells in splenocytes (splenocytes): no significant change
- percentage of CD19+CD69+ cells in splenocytes (splenocytes): no significant change
- percentage of CD34+ (stem cell) cells in bone marrow cells (bone marrow cells): no significant change
- percentage of Stem-cell antigen-1-positive cells (hematopoietic stem cell) in bone marrow cells (bone marrow cells): no significant change
